From patent US20220242812A1, “SWELL1-LRRC8 COMPLEX MODULATORS” (Washington University, priority 2019, published 2022)
Where two headings read alike, the source gives them in different places.

Legend:
[1] = tested on: SWELL1, LRRC8b, LRRC8c, LRRC8d, LRRC8e mRNA; assay type: cell-based; conditions: 3T3-F442A preadipocytes, 10 μM 96 h
Experimental: Data are represented as mean±SEM. Two-tailed unpaired t-test was used where *, ** and *** represents p<0.05, p<0.01 and p<0.001 respectively.
The cDNA synthesis, qRT-PCR reaction and quantification were carried out as described previously (Zhang et al., 2017).

[2] = Tolerability of chronic daily i.p. injection; assay type: in vivo, mice; conditions: daily i.p. injections for up to 8 weeks
Experimental: All compounds were dissolved in Kolliphor® EL (Sigma, #C5135).

[3] = tested on: cytochrome p450 isoenzyme; assay: Cytochrome P450 inhibition assay, overall statement; assay type: in vitro ADME, Human; conditions: in words
insulin secretion = assay: Glucose-stimulated insulin secretion in plasma of HFD mice; assay type: in vivo; conditions: 21 weeks HFD
Experimental: Mice were fasted for 6 h prior to glucose tolerance tests (GTT). Baseline glucose levels at 0 min timepoint (fasting glucose, FG) were measured from blood sample collected from tail snipping using glucometer (Bayer Healthcare LLC). Either 1 g or 0.75 g D-Glucose/kg body weight were injected (i.p.) for lean or HFD mice, respectively and glucose levels were measured at 7, 15, 30, 60, 90 and 120 min timepoints after injection. For insulin tolerance tests (ITTs), the mice were fasted for 4 h. Similar to GTTs, the baseline blood glucose levels were measured at 0 min timepoint and 15, 30, 60, 90 and 120 min timepoints post-injection (i.p.) of insulin (HumulinR, 1 U/kg body weight for lean mice or 1.25 U/kg body weight for HFD mice). […] The collected plasma was then measured for insulin content by using Ultra-Sensitive Mouse Insulin ELISA Kit (Crystal Chem, #90080). All mice and treatment groups were assessed blindly while performing experiments.

T2D KKAy mice = assay: Hyperinsulinemic euglycemic glucose clamp in T2D KKAy mice; assay type: in vivo
Experimental: Sterile silicone catheters (Dow-Corning) were placed into the jugular vein of mice under isoflurane anesthesia. Placed catheter was flushed with 200 U/ml heparin in saline and the free end of the catheter was directed subcutaneously via a blunted 14-gauge sterile needle and connected to a small tubing device that exited through the back of the animal. […] Hyperinsulinemic euglycemic clamps were performed on day 8 post-surgery on unrestrained, conscious mice as described elsewhere (Ayala et al., 2011; Kim et al., 2000), with some modifications. Mice were fasted for 6 h at which time insulin and glucose infusion were initiated (time 0). At 80 min prior to time 0 basal sampling was conducted, where whole-body glucose flux was traced by infusion of 0.05 μCi/min D-[3-3H]-glucose (Perkin Elmer), after a priming 5 μCi bolus for 1 minute. After the basal period, starting at time 0 D-[3-3H]-glucose was continuously infused at the 0.2 μCi/min rate and the infusion of insulin (Humulin, Eli Lilly) was initiated with a bolus of 80 mU/kg/min then followed by continuous infusion of insulin at the dose of 8 mU/kg/min throughout the assay. Fifty percent dextrose (Hospira) was infused at a variable rates (GIR) starting at the same time as the initiation of insulin infusion to maintain euglycemia at the targeted level of 150 mg/dl ([…]). Blood glucose (BG) measurements were taken every ten minutes via tail vein sampling using Contour glucometer (Bayer). After mouse reached stable BG and GIR (typically, after 75 minutes since starting the insulin infusion; for some mice, a longer time was required to achieve steady state) a single bolus of 12 μCi of [1-14C]-2-deoxy-D-glucose (Perkin Elmer) in 96 μl of saline was administered. Plasma samples (collected from centrifuged blood) for determination of tracers enrichment, glucose level and insulin concentration were obtained at times −80, −20, −10, 0, and every 10 min starting at 80 min post-insulin (5 min after [1-14C]-2-deoxy-D-glucose bolus was administered) until the conclusion of the assay at 140 min. Tissue samples were then collected from mice under isofluorane anesthesia from organs of interest (e.g., liver, heart, kidney, white adipose tissue, brown adipose tissue, gastrocnemius, soleus etc.) for determination of 1-14C1-2-deoxy-D-glucose tracer uptake. Plasma and tissue samples were processed as described previously (Ayala et al., 2011). Briefly, plasma samples were deproteinized with Ba(OH)2 and ZnSO4 and dried to eliminate tritiated water. The glucose turnover rate (mg/kg-min) was calculated as the rate of tracer infusion (dpm/min) divided by the corrected plasma glucose specific activity (dpm/mg) per kg body weight of the mouse. Fluctuations from steady state were accounted for by use of Steele's model. Plasma glucose was measured using Analox GMD9 system (Analox Technologies).
Tissue samples (˜30 mg each) were homogenized in 750 μl of 0.5% perchloric acid, neutralized with 10 M KOH and centrifuged. The supernatant was then used for first measuring the abundance of total [1-14C] signal (derived from both 1-14C-2-deoxy-D-glucose, 1-14C-2-deoxy-D-glucose 6 phosphate) and, following a precipitation step with 0.3 N […] and 0.3 N ZnSO4, for the measuring of non-phosphorylated 1-14C-2-deoxy-D-glucose. Glycogen was isolated by ethanol precipitation from 30% KOH tissue lysates, as described (Shiota, 2012). Insulin level in plasma at T0 and T140 were measured using a Stellux ELISA rodent insulin kit (Alpco).

VRAC/ICl,SWELL = VRAC/ICl,SWELL (Homo sapiens, UniProt Q8IWT6); conditions: selective VRAC/ICl,SWELL inhibitor; cited from earlier work
human Kv = conditions: cited from earlier work
[4] = tested on: delayed rectifier channels; conditions: cited from earlier work
hERG = hERG (Homo sapiens, UniProt Q12809); conditions: cited from earlier work
SWELL1 protein = SWELL1 protein (Mus musculus, UniProt Q80WG5); conditions: for SWELL1 protein expression: applied for 96 hours (10 μM)
R103E mutant SWELL1 = target: T1, R103E mutant SWELL1 (Homo sapiens, UniProt Q8IWT6, R103E); assay: ICl,SWELL inhibition in R103E mutant SWELL1 overexpressing HEK-293 cells; assay type: cell-based; conditions: R103E expressing HEK cells, 10 and 7 μM
T1 construct: expressed in transfected cells; host or cells: HEK-293

Compound: CCCCC1(C2CCCC2)Cc2cc(OCCCC(=O)O)c(Cl)c(Cl)c2C1=O (centres unmarked) [SN-401, 4-((2-butyl-6,7-dichloro-2-cyclopentyl-1-oxo-2,3-dihydro-1H-inden-5-yl)oxy)butanoic acid]
- SWELL1, LRRC8b, LRRC8c, LRRC8d or LRRC8e mRNA expression [1]: not associated with increases
- Signs of toxicity [2]: no overt signs of toxicity
- Cytochrome p450 isoenzyme inhibition [3]: minimal
- Glucose-stimulated insulin secretion (GSIS), serum insulin measurements (insulin secretion): significantly improved
- Glucose-infusion rate (GIR) to maintain euglycemia (T2D KKAy mice; T2D KKAy mice, 5 mg/kg i.p. 4 days, vs vehicle): higher
- Reduction of hepatic glucose production (Ra) at baseline (T2D KKAy mice; T2D KKAy mice, Basal): 40%
- Suppression of hepatic glucose production (Ra) during glucose/insulin infusion (T2D KKAy mice; T2D KKAy mice, Clamp): 75%
- Glucose incorporation into glycogen (T2D KKAy mice; adipose): markedly increased
- Insulin-stimulated 2-DG uptake (T2D KKAy mice; brown fat): not
- Insulin-stimulated 2-DG uptake (T2D KKAy mice; gonadal white adipose tissue (gWAT)): enhanced
- Insulin-stimulated 2-DG uptake (T2D KKAy mice; inguinal white adipose tissue (iWAT)): enhanced
- Glucose incorporation into glycogen (T2D KKAy mice; liver): markedly increased
- Insulin-stimulated 2-DG uptake (T2D KKAy mice; myocardium): enhanced
- Glucose incorporation into glycogen (T2D KKAy mice; skeletal muscle): markedly increased
- Insulin-stimulated 2-DG uptake (T2D KKAy mice; skeletal muscle): not
- IC50 (VRAC/ICl,SWELL): ~5 µM
- Effect on human Kv channels (human Kv): no effect
- Effect on delayed rectifier channels [4]: no effect
- Effect on hERG (hERG): no effect
- EC50 (SWELL1 protein): < 1 µM
- SWELL1 protein expression (SWELL1 protein; 3T3-F442A adipocytes): 1.5 fold control expression
- SWELL1 protein expression (SWELL1 protein; 3T3-F442A preadipocytes): 3 fold control expression

Compound: CCCCC1(C2CCCC2)Cc2cc(OCCCCCC(=O)O)c(Cl)c(Cl)c2C1=O (centres unmarked) [SN-406, 6-((2-butyl-6,7-dichloro-2-cyclopentyl-1-oxo-2,3-dihydro-1H-inden-5-yl)oxy)hexanoic acid]
- ICl,SWELL inhibition in R103E mutant vs WT (R103E mutant SWELL1): reduced
